Source: patent US20250073245A1, “COMPOSITION AND METHOD OF TREATING HYPOGONADISM IN MEN” (priority 2023, published 2025)
Several values for one entry are separate records, joined by “and”; a condition that tells them apart may be missing. Equal values may be shown once. Read-outs that look alike come from different tables or passages of the source.

Tests used:
hypogonadism in men = test: Study of testosterone cypionate injections every 7 days (with anastrozole) in men, followed by blood work until stabilization; assay type: in vivo, human; conditions: for TT at week 5 / TT once stable: average total testosterone; for increase in PSA from start of treatment to stabilization / PSA level at stabilization / Hemoglobin at 5 weeks / Hemoglobin at stabilization: average; for average decrease in A1c: TC and anastrozole dosing
From the text: Patient hemoglobin and total testosterone (TT) levels were used in this Study to determine when a patient becomes “stable” on treatment. The terms “stable”, “stability”, “stabilized” and “stabilization” are defined in this Study as “the point at which a patient's symptoms have resolved, polycythemia has stopped, and TC dosage has remained consistent for at least 3 months.” Polycythemia associated with testosterone replacement therapy (TRT) has commonly been controlled through frequent patient blood donation. […] Several TT “normal” ranges can be found in the literature. For example, the Endocrine Society identifies the normal range for TT levels in males to be 264-916 ng/dL (1,17). However, LabCorp Diagnostics has used the previously accepted “normal” range of 348-1197 ng/dL until 2017 and Quest Diagnostics uses a reference range of 250-1110 ng/dL.
Patients' responses to TC injections administered every 7 days were tracked and the resulting effects of TC dosing on cholesterol, A1c, and PSA levels were documented once stable TT levels were reached.
Subjects: Two cohorts were studied. The two cohorts studied were males that had previously been on TRT and males who had never been on any form of TRT. Blood work was collected from all patients at their initial visit, after 1 month of treatment, after 3 months of treatment, and then at 6 months, 9 months, 12 months, etc. as patients continued treatment. Data was collected for each cohort including the length of time that it took to stabilize on treatment and the average dosage injected weekly once patients had reached stabilization.
However, in this Study TC injections were administered every 7 days, and blood samples were collected at 7 days post-TC injection and after at least 4 consecutive weeks of injections. […] Collecting blood samples at the 4-week mark provides more consistent, accurate, and useful information regarding the TT blood level than if the samples are collected earlier.
Blood samples were then sent to an outsourced laboratory, Lab Tech Diagnostics. Samples were drawn at the patient's initial visit, after their first 4 consecutive TC injections, after 3 months of treatment, and at 3-month intervals thereafter. Testosterone, estradiol, and hemoglobin levels were tracked with every blood sample. PSA and cholesterol levels were checked every 3 months. A1c levels were checked with initial blood work, and then once per year if A1c was within normal limits (WNL) or every 3 months if A1c was >5.6.
Given, the primary goal was to determine a stabilization point such that the patient achieved maximum benefit with minimal side effects (e.g., elimination of polycythemia) from the treatment, the challenge was to identify a TC dose at which the patient's hemoglobin stopped increasing. […] Patients were advised to start 81 mg aspirin daily if their hemoglobin started increasing after starting treatment. […] Dosage adjustments of TC were made in 20 mg (0.1 ml) increments. Assessment of new dosages were not made until after four consecutive injections at the new dose and at 7 days after their last injection. After analysis of data, there were notable similarities in the Total Testosterone, estradiol, and hemoglobin levels once patients reached stabilization on treatment. There were also differences seen between patients that had been on TRT in the past through other clinics and those that started treatment with our clinic. Patients who had previously been on TRT took longer to stabilize on therapy than those who had never been on TRT.

[1] = in humans; cited from earlier work
[2] = well-known value; cited from earlier work
[3] = patients never on TRT, starting TT level 347.77 ng/dl
[4] = patients previously on TRT, starting TT level 479.83 ng/dl
[5] = patients never on TRT, initial 15.06 g/dl
[6] = patients previously on TRT, initial 15.78 g/dl

CC(=O)Oc1ccccc1C(=O)O [aspirin]
effect of adding aspirin on hemoglobin levels (hypogonadism in men; 81 mg daily, patients on TC whose hemoglobin started increasing): helped to either decrease hemoglobin levels or slow the rate of increase of hemoglobin levels

CC(C)(C#N)c1cc(Cn2cncn2)cc(C(C)(C)C#N)c1 [anastrozole]
side effects when anastrozole was started at the beginning of treatment (hypogonadism in men; in vivo): frequently experienced hot flashes or joint pains
half-life [1]: 30 to 60 h

C[C@]12CC[C@H]3[C@@H](CCC4=CC(=O)CC[C@@]43C)[C@@H]1CC[C@@H]2OC(=O)CCC1CCCC1 [TC, testosterone cypionate]
symptoms at low 7-day testosterone level (hypogonadism in men; 7-day testosterone level <600): almost all patients were still experiencing symptoms of testicular hypofunction
patients who developed prostate cancer (hypogonadism in men; 60 patients in the study): No patients
common increase in cholesterol levels seen with excessive TC dosing (hypogonadism in men; TC and anastrozole dosing as described in the study): Elimination
side effects seen at higher TT levels (hypogonadism in men; TT levels >1050): acne, aggression, erectile dysfunction, difficulty losing weight, extremely elevated estradiol levels, hair loss, and increased body hair
TT level at which patients stabilized (range) (hypogonadism in men; all patients in the study, drawn 7 days after injection): 605 to 1051 ng/dL
TT at week 5 (hypogonadism in men; [3]): 705.43 ng/dL
TT once stable (hypogonadism in men; [3]): 794.53 ng/dL
TT at week 5 (hypogonadism in men; [4]): 805.9 ng/dL and 805.90 ng/dL
TT once stable (hypogonadism in men; [4]): 780.1 ng/dL and 780.10 ng/dL
increase in PSA from start of treatment to stabilization (hypogonadism in men; patients never on TRT): 26.89%
PSA level at stabilization (hypogonadism in men; patients never on TRT, initial 0.859 ng/ml): 1.090 ng/mL
Hemoglobin at 5 weeks (hypogonadism in men; [5]): 15.33 g/dL
Hemoglobin at stabilization (hypogonadism in men; [5]): 15.79 g/dL
increase in PSA from start of treatment to stabilization (hypogonadism in men; patients previously on TRT): 14.36%
PSA level at stabilization (hypogonadism in men; patients previously on TRT, initial 1.017 ng/ml): 1.163 ng/mL
Hemoglobin at 5 weeks (hypogonadism in men; [6]): 16.22 g/dL
Hemoglobin at stabilization (hypogonadism in men; [6]): 15.70 g/dL
side effects when not consistent with both TC and anastrozole dosing (hypogonadism in men; inconsistent timing and dosage): frequently experienced acne, mood swings, and elevating hemoglobin
polycythemia (need to donate blood) (hypogonadism in men; once a patient reached stability on treatment): eliminated
chief complaints/symptoms (Table 1) as reported by the patient (hypogonadism in men; once stable on treatment): well-controlled
average decrease in A1c (hypogonadism in men; patients not previously on TRT): 0.39%
average time longer to stabilize (hypogonadism in men; patients previously on TRT in any form versus patients never on TRT): 9.7 months
average decrease in A1c (hypogonadism in men; patients previously on TRT): 0.14%
TT level at stabilization (range) (hypogonadism in men; patients never on TRT): 641 to 1051 ng/dL
TT level at stabilization (range) (hypogonadism in men; patients previously on TRT): 605 to 1020 ng/dL
half-life [2]: 170 to 190 h
